Data: patent publication US9963463B2, “Urea-substituted indanes as P38 map kinase inhibitors” (TORRENT PHARMACEUTICALS LIMITED, priority 2014, dated 2018)

molecular target: T1, purified recombinant human p38 alpha MAPK (Homo sapiens, UniProt Q16539); assay: Inhibition of p38 alpha MAPK activity, TR-FRET kinase assay; type: biochemical; settings: Concentration 100 nM; read-out: P38α Inhibition
T1 construct: purchased Millipore, USA
Experimental: Inhibition of p38 Alpha MAPK Activity: Time-Resolved Fluorescence Resonance Energy Transfer Kinase Standard Assay (TR-FRET Assay)
Compounds of present invention at various concentrations were premixed with DMSO. The experiment was initiated by mixing 0.5%-1.0% DMSO as vehicle/compounds with purified recombinant human p38 alpha MAPK (Millipore, USA) in the wells and 15 min incubation at room temperature. Thereafter, 30 nM of Biotinylated GST-ATF2 (Activation transcription Factor2) and 100 μM of ATP were added in to the wells containing reaction mixture, followed by reincubation for 60 minutes at RT. Reaction was terminated by addition of 10 mM of EDTA and detection reagent containing anti-phosphotheronine ATF2 antibody (PerkinElmer®, USA) labeled with europium chelate and APC (Allophycocyanin) labeled streptavidin, into the reaction mixture which was further incubated for 60 minutes at room temperature. The degree of phosphorylation of the substrate (GST-ATF2) was measured using Envision multimode reader (PerkinElmer®). Percentage inhibition of p38 kinase activity was calculated by determining ratio of specific europium 665 nm energy transfer signal to reference 615 nm signal.

T1 sequence (Q16539 whole entry): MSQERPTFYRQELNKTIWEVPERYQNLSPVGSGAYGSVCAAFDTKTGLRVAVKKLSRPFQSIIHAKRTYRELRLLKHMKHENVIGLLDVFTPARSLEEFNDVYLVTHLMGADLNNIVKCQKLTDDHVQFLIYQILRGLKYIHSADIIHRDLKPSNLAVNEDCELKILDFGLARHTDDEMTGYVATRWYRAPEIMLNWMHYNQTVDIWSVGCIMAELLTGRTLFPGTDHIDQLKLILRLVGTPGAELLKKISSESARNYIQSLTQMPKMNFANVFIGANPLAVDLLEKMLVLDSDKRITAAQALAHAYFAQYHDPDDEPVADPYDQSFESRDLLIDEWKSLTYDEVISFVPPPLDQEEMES

SMILES	inhibition at 0.1 µM
CC(C)(C)c1cc(NC(=O)Nc2ccc(OCCN3CCn4c(nnc4-c4ccc(O)cc4O)C3)c3c2CCC3)n(-c2ccc(O)c(Cl)c2)n1 [Compound 63, 1-[3-tert-butyl-1-(3-chloro-4-hydroxyphenyl)-1H-pyrazol-5-yl]-3-(7-{2-[3-(2,4-dihydroxyphenyl)-5,6-dihydro[1,2,4]triazolo[4,3-a]pyrazin-7(8H)-yl]ethoxy}-2,3-dihydro-1H-inden-4-yl)urea]	60 to 80%

same assay, conditions: Concentration 1 μM

SMILES	P38α Inhibition
COc1ccccc1-c1nnc2n1CCN(CCOc1ccc(NC(=O)Nc3cc(C(C)(C)C)nn3-c3ccc(O)c(Cl)c3)c3c1CCC3)C2 [Compound 25, 1-[3-tert-buty1-1-(3-chloro-4-hydroxyphenyl)-1H-pyrazol-5-yl]-3-(7-{2-[3-(2-methoxyphenyl)-5,6-dihydro[1,2,4]triazolo[4,3-a]pyrazin-7(8H)-yl]ethoxy}-2,3-dihydro-1H-inden-4-yl)urea]	+++++ (+++++ = Inhibition ≥80% ≥ 100%)

same assay, conditions: Concentration 1 μM; read-out: P38α Inhibition

SMILES	inhibition at 1 µM
CCCOc1ccccc1-c1nnc2n1CCN(CCOc1ccc(NC(=O)Nc3cc(C(C)(C)C)nn3-c3ccc(O)c(Cl)c3)c3c1CCC3)C2 [Compound 27, 1-[3-tert-butyl-1-(3-chloro-4-hydroxyphenyl)-1H-pyrazol-5-yl]-3-(7-{2-[3-(2-propoxyphenyl)-5,6-dihydro[1,2,4]triazolo[4,3-a]pyrazin-7(8H)-yl]ethoxy}-2,3-dihydro-1H-inden-4-yl)urea]	80 to 100%
CCCCOc1ccccc1-c1nnc2n1CCN(CCOc1ccc(NC(=O)Nc3cc(C(C)(C)C)nn3-c3ccc(C)cc3)c3c1CCC3)C2 [Compound 32, 1-(7-{2-[3-(2-butoxyphenyl)-5,6-dihydro[1,2,4]triazolo[4,3-a]pyrazin-7(8H)-yl]ethoxy}-2,3-dihydro-1H-inden-4-yl)-3-[3-tert-butyl-1-(4-methylphenyl)-1H-pyrazol-5-yl]urea]	80 to 100%
CC(C)(C)c1cc(NC(=O)Nc2ccc(OCCN3CCN(CC4CC4)C(=O)C3)c3c2CCC3)n(-c2ccc(O)cc2)n1 [Compound 18, 1-[3-tert-butyl-1-(4-hydroxyphenyl)-1H-pyrazol-5-yl]-3-(7-{2-[4-(cyclopropylmethyl)-3-oxopiperazin-1-yl]ethoxy}-2,3-dihydro-1H-inden-4-yl)urea]	80 to 100%
Cc1ccc(-n2nc(C(C)(C)C)cc2NC(=O)Nc2ccc(OCCN3CCn4c(nnc4-c4ccccc4O)C3)c3c2CCC3)cc1 [Compound 15, 1-[3-tert-butyl-1-(4-methylphenyl)-1H-pyrazol-5-yl]-3-(7-{2-[3-(2-hydroxyphenyl)-5,6-dihydro[1,2,4]triazolo[4,3-a]pyrazin-7(8H)-yl]ethoxy}-2,3-dihydro-1H-inden-4-yl)urea]	80 to 100%
Cc1ccc(-n2nc(C(C)(C)C)cc2NC(=O)Nc2ccc(OCCN3CCn4c(nnc4-c4ccccc4OCCN4CCOCC4)C3)c3c2CCC3)cc1 [Compound 20, 1-[3-tert-butyl-1-(4-methylphenyl)-1H-pyrazol-5-yl]-3-(7-{2-[3-{2-[2-(morpholin-4-yl)ethoxy]phenyl}-5,6-dihydro[1,2,4]triazolo[4,3-a]pyrazin-7(8H)-yl]ethoxy}-2,3-dihydro-1H-inden-4-yl)urea]	80 to 100%
COc1ccc(-n2nc(C(C)(C)C)cc2NC(=O)Nc2ccc(OCCN3CCN(CC4CC4)C(=O)C3)c3c2CCC3)cc1 [Compound 17, 1-[3-tert-butyl-1-(4-methoxyphenyl)-1H-pyrazol-5-yl]-3-(7-{2-[4-(cyclopropylmethyl)-3-oxopiperazin-1-yl]ethoxy}-2,3-dihydro-1H-inden-4-yl)urea]	60 to 80%
Cc1ccc(-n2nc(C(C)(C)C)cc2NC(=O)Nc2ccc(OCCN3CCN(Cc4ccccc4)C(=O)C3)c3c2CCC3)cc1 [Compound 16, 1-{7-[2-(4-benzyl-3-oxopiperazin-1-yl)ethoxy]-2,3-dihydro-1H-inden-4-yl}-3-[3-tert-butyl-1-(4-methylphenyl)-1H-pyrazol-5-yl]urea]	80 to 100%
Cc1ccc(-n2nc(C(C)(C)C)cc2NC(=O)Nc2ccc(OCCCN3CCN(CC4CC4)C(=O)C3)c3c2CCC3)cc1 [Compound 28, 1-[3-tert-butyl-1-(4-methylphenyl)-1H-pyrazol-5-yl]-3-(7-{3-[4-(cyclopropylmethyl)-3-oxopiperazin-1-yl]propoxy}-2,3-dihydro-1H-inden-4-yl)urea]	80 to 100%

Results, then the molecule that gave them:

inhibition at 1 µM	SMILES
80 to 100%	CCS(=O)(=O)Nc1cc(C(C)(C)C)cc(NC(=O)Nc2ccc(OCCN3CCn4c(nnc4-c4cc(Cl)ccc4O)C3)c3c2CCC3)c1OC [Compound 51, N-(5-tert-butyl-3-{[(7-{2-[3-(5-chloro-2-hydroxyphenyl)-5,6-dihydro[1,2,4]triazolo[4,3-a]pyrazin-7(8H)-yl]ethoxy}-2,3-dihydro-1H-inden-4-yl)carbamoyl]amino}-2-methoxyphenyl)ethanesulfonamide]
40 to 60%	Cc1ccc(-n2nc(C(C)(C)C)cc2NC(=O)Nc2ccc(OCC(=O)N3CCn4c(nnc4C(F)(F)F)C3)c3c2CCC3)cc1Cl [Compound 56, 1-[3-tert-butyl-1-(3-chloro-4-methylphenyl)-1H-pyrazol-5-yl]-3-(7-{2-oxo-2-[3-(trifluoromethyl)-5,6-dihydro[1,2,4]triazolo[4,3-a]pyrazin-7(8H)-yl]ethoxy}-2,3-dihydro-1H-inden-4-yl)urea]
80 to 100%	Cc1ccc(-n2nc(C(C)(C)C)cc2NC(=O)Nc2ccc(OCCN3CCn4c(nnc4-c4ccc(O)cc4O)C3)c3c2CCC3)cc1 [Compound 37, 1-[3-tert-butyl-1-(4-methylphenyl)-1H-pyrazol-5-yl]-3-(7-{2-[3-(2,4-dihydroxyphenyl)-5,6-dihydro[1,2,4]triazolo[4,3-a]pyrazin-7(8H)-yl]ethoxy}-2,3-dihydro-1H-inden-4-yl)urea]
80 to 100%	Cc1ccc(-n2nc(C(C)(C)C)cc2NC(=O)Nc2ccc(OCCN3CCn4c(nnc4-c4cccc(O)c4)C3)c3c2CCC3)cc1 [Compound 36, 1-[3-tert-butyl-1-(4-methylphenyl)-1H-pyrazol-5-yl]-3-(7-{2-[3-(3-hydroxyphenyl)-5,6-dihydro[1,2,4]triazolo[4,3-a]pyrazin-7(8H)-yl]ethoxy}-2,3-dihydro-1H-inden-4-yl)urea]
80 to 100%	CCCSc1ccccc1-c1nnc2n1CCN(CCOc1ccc(NC(=O)Nc3cc(C(C)(C)C)nn3-c3ccc(C)cc3)c3c1CCC3)C2 [Compound 33, 1-[3-tert-butyl-1-(4-methylphenyl)-1H-pyrazol-5-yl]-3-[7-(2-{3-[2-(propylsulfanyl)phenyl]-5,6-dihydro[1,2,4]triazolo[4,3-a]pyrazin-7(8H)-yl}ethoxy)-2,3-dihydro-1H-inden-4-yl]urea]
40 to 60%	COc1ccc(-c2nnc3n2CCN(C(=O)COc2ccc(NC(=O)Nc4cc(C(C)(C)C)nn4-c4ccccc4)c4c2CCC4)C3)cc1Cl [Compound 58, 1-(3-tert-butyl-1-phenyl-1H-pyrazol-5-yl)-3-(7-{2-[3-(3-chloro-4-methoxyphenyl)-5,6-dihydro[1,2,4]triazolo[4,3-a]pyrazin-7(8H)-yl]-2-oxoethoxy}-2,3-dihydro-1H-inden-4-yl)urea]
60 to 80%	COc1c(NC(=O)Nc2ccc(OCCCN3CCN(CC4CC4)C(=O)C3)c3c2CCC3)cc(C(C)(C)C)cc1NS(C)(=O)=O [Compound 41, N-(5-tert-butyl-3-{[(7-{3-[4-(cyclopropylmethyl)-3-oxopiperazin-1-yl]propoxy}-2,3-dihydro-1H-inden-4-yl)carbamoyl]amino}-2-methoxyphenyl) methanesulfonamide]
60 to 80%	CC(=O)Nc1cc2c(s1)CCN(C(=O)COc1ccc(NC(=O)Nc3cc(C(C)(C)C)nn3-c3ccc(C)cc3)c3c1CCC3)C2 [Compound 52, N-[5-({[7-({[3-tert-butyl-1-(4-methylphenyl)-1H-pyrazol-5-yl]carbamoyl}amino)-2,3-dihydro-1H-inden-4-yl]oxy}acetyl)-4,5,6,7-tetrahydrothieno[3,2-c]pyridin-2-yl] acetamide]
40 to 60%	Cc1ccc(-n2nc(C(C)(C)C)cc2NC(=O)Nc2ccc(OCCN3CCn4c(nnc4C4CCCCC4)C3)c3c2CCC3)cc1 [Compound 68, 1-[3-tert-butyl-1-(4-methylphenyl)-1H-pyrazol-5-yl]-3-{7-[2-(3-cyclohexyl-5,6-dihydro[1,2,4]triazolo[4,3-a]pyrazin-7(8H)-yl)ethoxy]-2,3-dihydro-1H-inden-4-yl}urea]
40 to 60%	Cc1ccccc1-n1nc(C(C)(C)C)cc1NC(=O)Nc1ccc(OCCN2CCN(CC3CC3)C(=O)C2)c2c1CCC2 [Compound 62, 1-[3-tert-butyl-1-(2-methylphenyl)-1H-pyrazol-5-yl]-3-(7-{2-[4-(cyclopropylmethyl)-3-oxopiperazin-1-yl]ethoxy}-2,3-dihydro-1H-inden-4-yl)urea]
80 to 100%	CCCCN1CCN(CCOc2ccc(NC(=O)Nc3cc(C(C)(C)C)cc(NS(C)(=O)=O)c3OC)c3c2CCC3)CC1=O [Compound 44, N-{5-tert-butyl-3-[({7-[2-(4-butyl-3-oxopiperazin-1-yl)ethoxy]-2,3-dihydro-1H-inden-4-yl}carbamoyl)amino]-2-methoxyphenyl} methanesulfonamide]
40 to 60%	COc1c(NC(=O)Nc2cc(C)c(OCCN3CCn4c(nnc4-c4cc(Cl)ccc4O)C3)c3c2CCC3)cc(C(C)(C)C)cc1NS(C)(=O)=O [Compound 73, N-(5-tert-butyl-3-{[(7-{2-[3-(5-chloro-2-hydroxyphenyl)-5,6-dihydro[1,2,4]triazolo[4,3-a]pyrazin-7(8H)-yl]ethoxy}-6-methyl-2,3-dihydro-1H-inden-4-yl)carbamoyl]amino}-2-methoxyphenyl)methanesulfonamide]
